Publication PMC5601486, “Identification of 4-phenylquinolin-2(1H)-one as a specific allosteric inhibitor of Akt” (Scientific Reports, 2017)

Experiments:
ACVRL1 = assay: KINOMEscan; conditions: 50000 nM
Method: KINOMEscan™ selectivity screen
(§1) The assay was perfor med at DiscoveRx Corporation according the methods published previously5. Briefly, Kinase-tagged T7 phage strains were grown in parallel in an E. coli host derived from the BL21 strain. E. coli were grown to log-phase and infected with T7 phage from a frozen stock and incubated with shaking at 32°C until lysis (90-150 minutes). The kinases were produced in HEK-293 cells and subsequently tagged with DNA for qPCR detection. Streptavidin-coated magnetic beads were treated with biotinylated small molecule ligands to generate affinity resins for kinase
(§2) inhibitor or DMSO control was performed in polypropylene 384-well plates for 1 hr at room temperature. After wash with PBS buffer containing 0.05% Tween 20, the beads were incubated in elution buffer (PBS containing 0.05 % Tween 20 and 0.5 μM non-biotinylated affinity ligand) for 30 minutes at room temperature. The kinase concentration in the eluates was measured by qPCR.

CSNK1A1L = assay: KINOMEscan; conditions: 50000 nM
Method: KINOMEscan™ selectivity screen
as §1, §2

ASK1 = assay: KINOMEscan; conditions: 50000 nM
Method: KINOMEscan™ selectivity screen
as §1, §2

EGFR(L858R) = assay: KINOMEscan; conditions: 50000 nM
Method: KINOMEscan™ selectivity screen
as §1, §2

PKC = assay: Western blot of PKC phosphorylation; type: cell-based, Mouse; conditions: Neuro 2A cells
Method: Neuro 2A cells were seeded in 12-well plates in DMEM containing 5% FBS for 24 hr.
After overnight serum starvation (in 0% FBS DMEM), cells were incubated for 30 min at 37 °C with G7 or LY294002 or Torin 1 (Sigma Aldrich) at various concentrations, or DMSO control. IGF-1 was added to each well at a final concentration of 100 ng/mL. After 30-min incubation cells were washed with cold PBS and lysed with 50 µL lysis buffer containing 1% Triton X-100 and protease/phosphatase inhibitors (Cell Signaling Technology) or RIPA buffer (Santa Cruz Biotech). Samples were electrophoresed in 4–12% Bis-Tris gels (Life Technologies) at 150 V using MOPS SDS running buffer. Proteins were transferred electrophoretically to a PVDF or nitrocellulose membrane. For detection of cleaved […]
caspase 3 a Trans-Blot Turbo Transfer System (Bio-Rad, 25 V for 25 min) with PVDF membrane were used. […]
anti- GAPDH (14C10) antibody (#2118) (all antibodies were from Cell Signaling Technology unless indicated, 1:1000 dilution was used) at 4°C overnight, washed three times with TBS-T, then incubated with peroxidase-conjugated secondary antibody (Sigma-Aldrich) for 1 hr at room temperature. […] Band intensity was quantitated using Kodak 1D imaging analysis software. […]

[1] = system: RSK3(Kin.Dom.2-C-terminal); assay: KINOMEscan; conditions: 50000 nM
Method: KINOMEscan™ selectivity screen
as §1, §2

DCAMKL1 = assay: KINOMEscan; conditions: 50000 nM
Method: KINOMEscan™ selectivity screen
as §1, §2

[2] = system: ABL1(F317I)-nonphosphorylated; assay: KINOMEscan; conditions: 50000 nM
Method: KINOMEscan™ selectivity screen
as §1, §2

[3] = system: JAK3(JH1domain-catalytic); assay: KINOMEscan; conditions: 50000 nM
Method: KINOMEscan™ selectivity screen
(§3) The assay was perfor med at DiscoveRx Corporation according the methods published previously5. […] The kinases were produced in HEK-293 cells and subsequently tagged with DNA for qPCR detection. Streptavidin-coated magnetic beads were treated with biotinylated small molecule ligands to generate affinity resins for kinase
as §2

DCAMKL3 = assay: KINOMEscan; conditions: 50000 nM
Method: KINOMEscan™ selectivity screen
Briefly, Kinase-tagged T7 phage strains were grown in parallel in an E. coli host derived from the BL21 strain. E. coli were grown to log-phase and infected with T7 phage from a frozen stock and incubated with shaking at 32°C until lysis (90-150 minutes). The kinases were produced in HEK-293 cells and subsequently tagged with DNA for qPCR detection. Streptavidin-coated magnetic beads were treated with biotinylated small molecule ligands to generate affinity resins for kinase
as §2

MARK3 = assay: KINOMEscan; conditions: 50000 nM
Method: KINOMEscan™ selectivity screen
as §1, §2

EPHB3 = assay: KINOMEscan; conditions: 50000 nM
Method: KINOMEscan™ selectivity screen
as §3, §2

ADCK3 = assay: KINOMEscan; conditions: 50000 nM
Method: KINOMEscan™ selectivity screen
as §1, §2

MEK5 = assay: KINOMEscan; conditions: 50000 nM
Method: KINOMEscan™ selectivity screen
as §1, §2

LIMK1 = assay: KINOMEscan; conditions: 50000 nM
Method: KINOMEscan™ selectivity screen
as §1, §2

MYO3A = assay: KINOMEscan; conditions: 50000 nM
Method: KINOMEscan™ selectivity screen
as §1, §2

Akt S473 phosphorylation = assay: pS473-Akt HTRF assay; type: cell-based, Mouse
Method: Neuro 2A cells were seeded (4,000 cells/well) in 4 µL of DMEM with 0.5% FBS and 1x Penicillin/Streptomycin in white solid bottom tissue-culture treated 1536-well plates (Greiner, 789173-F) with MultiDrop Combi Dispenser (Thermo Scientific). The cells were incubated for 24 h at 37 °C, 5% CO2, 95% humidity. Twenty-three nL of tested compounds were transferred to each well with an automated pin-tool station (Kalypsys). Following incubation for 15 min at 37 °C, 0.5 µL IGF (500 ng/mL of final concentration) was added and incubated for additional 40 min at 37 °C. After the addition of 1.5 µL 4x lysis buffer and 15-min incubation at room temperature (25 °C), 2 µL of HTRF® conjugated antibodies (fluorophore d2 conjugated anti-Akt monoclonal antibody and Europium^3+ cryptate-labeled anti-pS473-Akt monoclonal antibody, obtained from CisBio, 1:80 dilution) were added with BioRAPTR FRD™ (Beckman Coulter). The plates were incubated at room temperature for 20 h. The signal was measured by EnVision Multilabel Plate Reader (PerkinElmer) with excitation at 330 nm, emission at 620 nm (donor) and 665 nm (acceptor). Results were calculated and analyzed in a format of the ratio 665 nm/620 nm multiplied by 10^4.
Relative activity was calculated by normalizing each HTRF signal from each sample well to the mean HTRF signal from the DMSO-only control wells.
The Library of Pharmacologically Active Compounds (LOPAC, 1280 compounds) and the Molecular Library Small Molecular Repository Library (MLSMR, 373,868 compounds) were obtained from Sigma-Aldrich.
Quantitative HTS (qHTS) and curve response class classification
The qHTS screen was performed as described previously1. Each compound was titrated in seven concentrations. The final concentrations of the compounds assayed ranged from 4.9 nM to 76.6 µM. The curve response classifications (CRC), which can be used to depict potency, efficacy and reliability of the data, and to estimate an IC50 value, were determined by a customized software2. […]
Sigma-Aldrich) and the basal response (0% inhibition) was set to the DMSO control.
Efficacy of a compound refers to the highest response normalized to the maximal response of LY. The CRCs were grouped into 4 categories. Class 1 are well-fit and have both upper and lower asymptotes with efficacy greater than 30%
(Class1.1, >80% efficacy; Class 1.2; 30-80% efficacy). Class 2 are incomplete with only one asy mptote (Class 2.1, > 80% efficacy; Class 2.2, 30-80% % efficacy). Class 3 display activity only at the highest concentrations and efficacy >30%. Class 4 are with low efficacy (<30%) or no response and considered inactive3.

ERK8 = assay: KINOMEscan; conditions: 50000 nM
Method: KINOMEscan™ selectivity screen
as §1, §2

MAP4K4 = assay: KINOMEscan; conditions: 50000 nM
Method: KINOMEscan™ selectivity screen
as §1, §2

Structure (SMILES): Oc1cc(-c2ccccc2)c2ccccc2n1 [G7, 4-phenylquinolin-2(1H)-one]
- Percent Control (ACVRL1): 100%
- Percent Control (CSNK1A1L): 81%
- Percent Control (ASK1): 94%
- Percent Control (EGFR(L858R)): 83%
- phosphorylation (activation status) of PKC (PKC): did not alter
- Percent Control [1]: 59%
- Percent Control (DCAMKL1): 87%
- Percent Control [2]: 71%
- Percent Control [3]: 56%
- Percent Control (DCAMKL3): 91%
- Percent Control (MARK3): 87%
- Percent Control (EPHB3): 96%
- Percent Control (ADCK3): 92%
- Percent Control (MEK5): 70%
- Percent Control (LIMK1): 100%
- Percent Control (MYO3A): 85%
- IC50 (Akt S473 phosphorylation; Mus musculus, N2a, Neuro 2A cells, inhibitor 15 min before IGF, read-out: IC50): ~20 µM
- maximum inhibition (Akt S473 phosphorylation; compared to that of 100 µM LY): 50%
- Percent Control (ERK8): 46%
- Percent Control (MAP4K4): 100%
